Measurements from patent publication US20120196793A1, “BIOMARKERS FOR IAP INHIBITOR COMPOUNDS” (priority 2009, published 2012).

Assays:
[1] = tested on: TNFα; experiment: TNFα ELISA of tumor lysates from orthotopic MDA-MB-231 xenografts after a single oral dose; format: in vivo, mice; details: 39 days after tumor cell implantation, mean tumor volume approximately 141 mm3
Experimental: To assess whether the induction of TNFα observed in the MDA-MB-231 breast tumor cell line translated to an in vivo setting, an experiment is performed in mice harboring orthotopically implanted MBA-MD-231 tumors.
A single oral dose of Compound A is administered 39 days following tumor cell implantation when mean tumor volumes reached approximately 141 mm3. Tumors are harvested from each animal, lysed, and analyzed by ELISA to determine TNFα concentrations.

[2] = tested on: TNFα; experiment: TNFα ELISA in SK-OV-3 cells with shRNA knockdown of NFkB pathway nodes; format: cell-based, Human
Experimental: To elucidate this mechanism, nodes of the canonical and non-canonical NFkB pathways and are knocked down and induction of TNFα expression, a marker of NFkB activation, after treatment with the Smac mimetic compound Compound A, is assessed. […] Therefore, tumors with active or functional canonical NFkB signaling, as evidenced by TNFα expression or other markers of active NFkB signaling, are more likely to respond to Compound A.
On day one, SKOV cancer cells are plated into two 96-well, clear, flat bottom plates. All wells in row A contain 200 uL of media. All wells in rows B-G contain 5000 cells per well in 180 ul of RPMI media with 10% FBS and 1 ug/mL of puromycin. Plates are then incubated overnight for 18 hours at 37 C, 5% CO2. […] TNFα levels in the media are measured using the R&D Quantikine Human TNFalpha High Sensitivity ELISA assay, catalog number HSTA00D. […] The colorimetric readout is measured on a spectrometer at 490 nM within 30 minutes of adding the stop solution. Raw data is normalized to account for background noise, duplicate values are averaged and concentrations are calculated from a standard curve (FIG. 9). […] CTG measures the amount of ATP released from viable cells that can be measured by a luminescent plate reader. Cells with CTG are incubated for ten minutes at room temperature and read on a luminescent plate reader. […]

[3] = tested on: TNFα; experiment: Secreted TNFα ELISA in a panel of cancer cell lines before and 24 hours after compound addition; format: cell-based, Human; details: sensitive vs insensitive cancer cell lines (3-day viability assays, up to 10 uM)
Experimental: To test whether the engagement of the TNFα signaling pathway is requisite for single agent activity in vitro, a panel of cancer cell lines is evaluated for sensitivity to Compound A while in parallel, secreted TNFα expression levels are assessed by ELISA before and 24 hours after compound addition. […] Increased basal TNFα levels also positively correlate with sensitivity to Compound A (FIG. 8).
On day one, cancer cells are plated into two 96-well, clear, flat bottom plates. All wells in row A contain 200 uL of media. All wells in rows B-G contain 5000 cells per well in 180 ul of RPMI media with 10% FBS. Plates are then incubated overnight for 18 hours at 37 C, 5% CO2. […] TNFα levels in the media are measured using the R&D Quantikine Human TNFα High Sensitivity ELISA assay, catalog number HSTA00D. […] The colorimetric readout is measured on a spectrometer at 490nM within 30 minutes of adding the stop solution. Raw data is normalized to account for background noise, duplicate values are averaged and concentrations are calculated from a standard curve (FIG. 8). […] CTG measures the amount of ATP released from viable cells that can be measured by a luminescent plate reader. Cells with CTG are incubated for ten minutes at room temperature and read on a luminescent plate reader. Raw data is normalized to account for background noise, duplicate values are averaged and percent control growth is calculated.

[4] = tested on: MDA-MB-231 breast cancer cell line; experiment: In vitro induction of TNFα, caspase activation and cell death in tumor cell lines; format: cell-based; details: in vitro assays, variety of tumor cell lines including MDA-MB-231
[5] = tested on: patient-derived tumor models representing both triple negative breast cancer and Non Small Cell Lung Carcinoma (NSCLC); experiment: Single agent tumor growth inhibition (% T/C) in patient-derived xenograft models; format: in vivo, nude mice; details: 18 patient-derived tumor models
Description: Patient-derived xenograft models in which human tumors are surgically resected then directly implanted and subsequently passaged in nude mice are potentially more clinically relevant than cell line models since there is no selective pressure for two dimensional growth on a plastic stratum.
Compound A has been tested for single agent activity in 18 patient-derived tumor models representing both triple negative breast cancer and Non Small Cell Lung Carcinoma (NSCLC) models. Tumor growth inhibition by Compound A is reported as % T/C (percent growth of tumors in mice treated with Compound A relative to the growth of tumors in Control vehicle treated mice). Complete regression of a tumor would be reported as −100% T/C, tumor stasis (no growth) would be reported as 0% T/C, and no effect would be reported as 100% T/C. […] Stasis (T/C≦40%) has been observed in 25% of primary models assessed.

CN[C@@H](C)C(=O)N[C@H](C(=O)N1CCC[C@H]1c1nc(C(=O)c2ccc(F)cc2)cs1)C1CCCCC1 [Compound A, (S)—N—((S)-1-Cyclohexyl-2-{(S)-2-[4-(4-fluoro-benzoyl)-thiazol-2-yl]-pyrrolidin-1-yl}-2-oxo-ethyl)-2-methylamino-propionamide]
increase in TNFα in MDA-MB-231 tumor lysates [1]: ~10 fold
Compound A-mediated induction of TNFα after knockdown of RelB ([2]; SK-OV-3, shRNA-mediated knockdown of RelB (non-canonical NFkB pathway)): does not impact
Compound A-mediated TNF induction after knockdown of RelA ([2]; SK-OV-3 ovarian carcinoma cell line, shRNA-mediated knockdown of RelA (canonical NFkB pathway)): ablated TNF induction
induction of secreted TNFα [3]: induced TNF-alpha in sensitive but not insensitive cancer cell lines
induction of TNFα, activation of caspases and subsequent cell death [4]: induces the induction of TNFα, activation of caspases and subsequent cell death
range of responses (% T/C) [5]: from tumor regression to no effect
share of primary models in which stasis (T/C≦40%) was observed [5]: 25%
